Measured values published in article PMC5048545 (Journal of molecular biology, 2016).

Assays:
[1] = target: T1, carboxysome-associated PII protein (CPII) (Thiomonas intermedia, UniProt D5X329); assay: crystal structures; format: binding
[2] = target: T1, carboxysome-associated PII protein (CPII)

| Kd [1] | SMILES | crystal structure; EPR titration [2] |
| --- | --- | --- |
| 1800 µM | Nc1ncnc2c1ncn2[C@@H]1O[C@H](COP(=O)(O)O)[C@@H](O)[C@H]1O [AMP] | – |
| – | O=C(O)O [bicarbonate] | Bicarbonate molecules bind in nooks formed by Gly-101 and Arg-102, which immediately precede the C-loop α-helix |
